According to US20220370586A1, “METHOD OF GENERATING ACTIVATED T CELLS FOR CANCER THERAPY” (Cedars-Sinai Medical Center, priority 2019, published 2022):

How the values were obtained:
[1] = test system: T effector cells; assay: T cell suppression assay (CFSE proliferation of T effector cells, FACS); format: cell-based, human; conditions: for effect on T effector cell proliferation (in words): T cell activation by antigen presenting cells, with or without Tregs; for increase of T cell expansion compared to T control group (without molecule): with T-reg (1:1)
Description: PBMC was isolated (Ficoll, GE Healthcare) from the WBC cone collected from healthy platelet donor. Cells were washed and passed through 40 um cell strainer before being stained with T cell surface antibodies. Then cells were put on cell sorter (BD FACSARIA III). Specific cell populations were collected as follows: CD4^+CD25^− cells (T effector cells), CD4^+CD25^+CD45RA^+CD127^− cells (T regulatory cells) and CD3^− cells (serve as Antigen Presenting Cells, APC). T effector cells were labeled with CellTrace CFSE (Invitrogen), heavily washed before cell number counting. Effector cells and T-regs were then mixed together at 1:1 ratio in culture media (RPMI 1640, 10% FBS, Pen-Strep and 1% NEAA) which enhanced with anti-CD3 (3 ug/ml) anti-CD28 (2 ug/ml) antibodies. APCs were treated with Mitomycin (50 ug/ml) for 30 minutes at 37° C., 5% CO2 incubator, then added to culture mix (APC:T-eff 2:1) as a proliferation co-stimulator. Cell mixture was incubated at 37° C., 5% CO2 for 6 days before being re-stained with T cell surface markers (CD4, CD25) and sent for FACS analysis (FIGS. 1A-1B, 4 and 5).
Molecule 11702 and 11704 were added to treat groups respectively at a concentration gradient of 5 uM, 25 uM and 50 uM.
FACS results focus on CD4^+CD25^−CFES^+ population (T effector cells). […] As T cells proliferate and replicate, CFSE peaks extend successively to left and become less fluorescent (toward negative range). The more cell population moves to left, the stronger the proliferation.

[2] = test system: B16 melanoma; assay: B16 melanoma implantation in C57 BL mice; format: in vivo
Protocol: After implantation of B16 melanoma, C57 BL mice underwent treatment with 11702 GITR agonist or DMSO control. (A) Animals lived longer after GITR agonist intraperitoneal 30 mg/kg treatment twice per week (p=0.0333, log rank). (B) Tumor volume was inhibited in 11702 treated animals (p<0.05, Anova).
After implantation of B16 melanoma, C57 BL mice underwent treatment with 11702 GITR agonist or DMSO control. […] (B) Tumor volume was inhibited in 11702 treated animals (p<0.05, Anova).

Compound	effect on T effector cell proliferation (in words) [1]	most effective dose to accelerate T cell proliferation ([1]; T effector without T-reg)	increase of proliferated population compared to base line ([1]; T effector without T-reg, 5 uM) [%]	increase of proliferated population compared to base line ([1]; T effector without T-reg, 25 uM) [%]	increase of proliferated population compared to base line ([1]; T effector without T-reg, 50 uM) [%]	increase of T cell expansion compared to T control group (without molecule) ([1]; 5 uM) [%]	increase of T cell expansion compared to T control group (without molecule) ([1]; 25 uM) [%]	increase of T cell expansion compared to T control group (without molecule) ([1]; 50 uM) [%]	survival ([2]; intraperitoneal 30 mg/kg twice per week vs DMSO control, p=0.0333, log rank)	PD-1 expression on activated CD4+ and effector memory CD8+ tumor infiltrating lymphocytes ([2]; vs DMSO control)	activated CD4+ cells among tumor infiltrating lymphocytes (FACs) ([2]; vs DMSO control)	effector memory cytotoxic CD8+ T cells among tumor infiltrating lymphocytes (FACs) ([2]; vs DMSO control)	Tumor volume ([2]; vs DMSO control, p<0.05, Anova)	inhibition at 50 µM ([1]; Homo sapiens, T-cell, T effector without T-reg, 50 uM, read-out: inhibition (decrease) of T cell proliferation) [%]	inhibition at 25 µM ([1]; Homo sapiens, T-cell, with T-reg, 25 uM, read-out: inhibition (decrease) of T cell expanding) [%]	effect on T effector cells ([1]; T effector without T-reg, 5 uM)	effect on T effector cells ([1]; T effector without T-reg, 25 um)	decrease of proliferation compared to base line ([1]; with T-reg, 50 uM) [%]
OCC1OC(Nc2ccc(-c3ccc(NC4CC(O)C(CO)O4)cc3)cc2)CC1O (stereo not shown) [RMGL171102]	highly active	around 25 uM	47.4	61.7	52	34.4	96.7	107.1	lived longer	increased PD-1 expression	increased presence	increased	inhibited					
O=C(CCCCC(=O)NN=Cc1cccc(O)c1)NN=Cc1cccc(O)c1 [RMGL171104]	dose dependent retraction of T effector cells													39.1	33.9	no significant effect	no significant effect	55.9
